Test results as given in US10703764B2, “Benzopiperazine compositions as BET bromodomain inhibitors” (FORMA Therapeutics, Inc., priority 2013, dated 2020).

Tests used:
BRD4 BD1 = target: T1, BRD4 BD1 (Homo sapiens, UniProt O60885); assay: AlphaScreen binding assay, BRD4 Bromodomain 1
T1 construct: made in house
Method in brief: (§1)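 Compound dilution series were mixed with His-tagged BRD4 bromodomain and biotinylated tetra-acetylated H4 (1-21) peptide at pH 7.3 (BD1 and peptide at 50 nM, BD2 and peptide at 100 nM). Donor and acceptor beads were then added, and plates were equilibrated at least 1 h before reading. IC50 values were fitted with a four-parameter logistic model.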

MV4-11 cells = assay: Oncology cell growth assay (3-day proliferation, CellTiter-Glo); assay type: cell-based; details: Homo sapiens, MV4-11, 72 h, AML cell line MV4-11, 72 hours, compounds grouped by IC50 range, read-out: MV4-11 IC50 (inhibition of proliferation, gIC50)
Method in brief: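 Compounds were serially diluted 3-fold in DMSO, giving final well concentrations from 10 down to 0.0045 μM. MV4-11 cells were then seeded at 3000 cells/well in RPMI 1640 with 10% FBS and incubated 72 hours. CellTiter-Glo signal was measured and gIC50 obtained by four-parameter logistic regression.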

BRD4 BD2 = target: T2, BRD4 BD2 (Homo sapiens, UniProt O60885); assay: AlphaScreen binding assay, BRD4 Bromodomain 2
T2 construct: made in house
Method in brief: as §1

IC50 (BRD4 BD1) [µM]	IC50 (MV4-11 cells) [µM]	IC50 (BRD4 BD2) [µM]	Compound
0.1 to 1	< 0.1	< 0.05	CC(=O)N1c2ccc(-c3ccc(S(C)(=O)=O)cc3)cc2N(C(=O)Oc2ccccc2)C[C@@H]1C [Example I-223]
0.1 to 1	> 0.5	0.05 to 0.5	CCOC(=O)N1C[C@H](C)N(C(C)=O)c2ccc(-c3ccc(S(C)(=O)=O)cc3)cc21 [Example I-224]
0.1 to 1	< 0.1	< 0.05	CC(=O)N1c2ccc(-c3ccc(S(C)(=O)=O)cc3)cc2N(C(=O)Oc2ccccc2Cl)C[C@@H]1C [Example I-225]
0.1 to 1	< 0.1	< 0.05	COc1ccccc1OC(=O)N1C[C@H](C)N(C(C)=O)c2ccc(-c3ccc(S(C)(=O)=O)cc3)cc21 [Example I-227]
0.1 to 1	< 0.1	< 0.05	COC(=O)c1ccc(OC(=O)N2C[C@H](C)N(C(C)=O)c3ccc(-c4ccc(S(C)(=O)=O)cc4)cc32)cc1 [Example I-229]
0.1 to 1	0.1 to 0.5	0.05 to 0.5	CCCCOC(=O)N1C[C@H](C)N(C(C)=O)c2ccc(-c3ccc(S(C)(=O)=O)cc3)cc21 [Example I-231]
0.1 to 1	< 0.1	0.05 to 0.5	CC(=O)N1c2ccc(-c3ccc(S(C)(=O)=O)cc3)cc2N(C(=O)Oc2ccc(C)cc2)C[C@@H]1C [Example I-232]
0.1 to 1	< 0.1	< 0.05	COc1ccc(OC(=O)N2C[C@H](C)N(C(C)=O)c3ccc(-c4ccc(S(C)(=O)=O)cc4)cc32)cc1 [Example I-233]
0.1 to 1	< 0.1	< 0.05	CC(=O)N1c2ccc(-c3ccc(S(C)(=O)=O)cc3)cc2N(C(=O)Oc2ccc(F)cc2)C[C@@H]1C [Example I-234]
1 to 10	> 0.5	> 0.5	CC(=O)N1c2ccc(-c3ccc(S(C)(=O)=O)cc3)cc2N(C(=O)OC2CCCC2)C[C@@H]1C [Example I-236]
1 to 10	0.1 to 0.5	< 0.05	CC(=O)N1c2ccc(-c3ccc(S(C)(=O)=O)cc3)cc2N(C(=O)Oc2cccc(C(F)(F)F)c2)C[C@@H]1C [Example I-237]
0.1 to 1	0.1 to 0.5	< 0.05	CC(=O)N1c2ccc(-c3ccc(S(C)(=O)=O)cc3)cc2N(C(=O)OC2CCCCC2)C[C@@H]1C [Example I-238]
1 to 10	0.1 to 0.5	< 0.05	CC(=O)N1c2ccc(-c3ccc(S(C)(=O)=O)cc3)cc2N(C(=O)Oc2ccc3ccccc3c2)C[C@@H]1C [Example I-239]
1 to 10	> 0.5	0.05 to 0.5	CC(=O)N1c2ccc(-c3ccc(S(C)(=O)=O)cc3)cc2N(C(=O)C2CCC2)C[C@@H]1C [Example I-245]
0.1 to 1	0.1 to 0.5	0.05 to 0.5	CC(=O)N1c2ccc(-c3ccc(S(C)(=O)=O)cc3)cc2N(C(=O)OCC(C)C)C[C@@H]1C [Example I-250]
1 to 10	> 0.5	0.05 to 0.5	CC(=O)N1c2ccc(-c3ccc(S(C)(=O)=O)cc3)cc2N(C(=O)Oc2cccc3ccccc23)C[C@@H]1C [Example I-251]
0.1 to 1	0.1 to 0.5	0.05 to 0.5	CCCOC(=O)N1C[C@H](C)N(C(C)=O)c2ccc(-c3ccc(S(C)(=O)=O)cc3)cc21 [Example I-252]
< 0.1	0.1 to 0.5	< 0.05	CC(=O)N1c2ccc(-c3cnn(C4CC4)c3)cc2N(C(=O)Oc2ccc(Cl)cc2)C[C@@H]1C [Example I-260]
0.1 to 1	0.1 to 0.5	< 0.05	CC(=O)N1c2ccc(-c3cnn(C4CC4)c3)cc2N(C(=O)Oc2ccc(F)cc2)C[C@@H]1C [Example I-261]
0.1 to 1	< 0.1	< 0.05	CC(=O)N1c2ccc(-c3cnn(C4CC4)c3)cc2N(C(=O)Oc2ccc(C)cc2)C[C@@H]1C [Example I-264]
0.1 to 1	< 0.1	< 0.05	CC(=O)N1c2ccc(-c3ccc(S(=O)(=O)NC4CC4)cc3)cc2N(C(=O)c2ccco2)C[C@@H]1C [Example I-268]
1 to 10	0.1 to 0.5	< 0.05	CC(=O)N1c2ccc(-c3ccc(S(=O)(=O)NC(C)C)cc3)cc2N(C(=O)c2ccco2)C[C@@H]1C [Example I-274]
1 to 10	0.1 to 0.5	< 0.05	CC(=O)N1c2ccc(-c3ccc(S(=O)(=O)N(C)C)cc3)cc2N(C(=O)c2ccco2)C[C@@H]1C [Example I-277]

The remaining lines, values behind:

Compound	IC50 (BRD4 BD1) [µM]	IC50 (MV4-11 cells) [µM]	IC50 (BRD4 BD2) [µM]
CC(=O)N1c2cc(NS(C)(=O)=O)c(-c3cnn(C4CC4)c3)cc2N(C(=O)OC(C)C)C[C@@H]1C [Example I-213, Isopropyl (S)-4-acetyl-7-(1-cyclopropyl-1H-pyrazol-4-yl)-3-methyl-6-(methylsulfonamido)-3,4-dihydroquinoxaline-1(2H)-carboxylate]	> 10	> 0.5	> 0.5
CC(=O)Nc1cc2c(cc1-c1cnn(C3CC3)c1)N(C(=O)OC(C)C)C[C@H](C)N2C(C)=O [Example I-214, Isopropyl (S)-6-acetamido-4-acetyl-7-(1-cyclopropyl-1H-pyrazol-4-yl)-3-methyl-3,4-dihydroquinoxaline-1(2H)-carboxylate]	0.1 to 1	0.1 to 0.5	0.05 to 0.5
CNC(=O)Nc1cc2c(cc1-c1cnn(C3CC3)c1)N(C(=O)OC(C)C)C[C@H](C)N2C(C)=O [Example I-215, Isopropyl (S)-4-acetyl-7-(1-cyclopropyl-1H-pyrazol-4-yl)-3-methyl-6-(3-methylureido)-3,4-dihydroquinoxaline-1(2H)-carboxylate]	0.1 to 1	0.1 to 0.5	0.05 to 0.5
CC(=O)N1c2cc(N)c(-c3ccc(S(C)(=O)=O)cc3)cc2N(C(=O)OC(C)C)C[C@@H]1C [Example I-216, Isopropyl (S)-4-acetyl-6-amino-3-methyl-7-(4-(methylsulfonyl)phenyl)-3,4-dihydroquinoxaline-1 (2H)-carboxylate]	1 to 10	> 0.5	> 0.5
CC(=O)N1c2cc(Br)c(-c3ccc(S(C)(=O)=O)cc3)cc2N(C(=O)OC(C)C)C[C@@H]1C [Example I-217, Isopropyl (S)-4-acetyl-6-bromo-3-methyl-7-(4-(methylsulfonyl)phenyl)-3,4-dihydroquinoxaline-1(2H)-carboxylate]	1 to 10	> 0.5	> 0.5
CC(=O)N1c2cc(Cl)c(-c3ccc(S(C)(=O)=O)cc3)cc2N(C(=O)OC(C)C)C[C@@H]1C [Example I-218, Isopropyl (S)-4-acetyl-6-chloro-3-methyl-7-(4-(methylsulfonyl)phenyl)-3,4-dihydroquinoxaline-1(2H)-carboxylate]	1 to 10	> 0.5	> 0.5
CC(=O)N1c2cc(C#N)c(-c3ccc(S(C)(=O)=O)cc3)cc2N(C(=O)OC(C)C)C[C@@H]1C [Example I-219, Isopropyl (S)-4-acetyl-6-cyano-3-methyl-7-(4-(methylsulfonyl)phenyl)-3,4-dihydroquinoxaline-1(2H)-carboxylate]	1 to 10	> 0.5	> 0.5
CC(=O)N1c2ccc(-c3cnn(C4CC4)c3)cc2N(C(=O)Oc2ccccc2)C[C@@H]1C [Example I-256]	0.1 to 1	< 0.1	< 0.05
CC(=O)N1c2ccc(-c3cnn(C4CC4)c3)cc2N(C(=O)Oc2ccccc2Cl)C[C@@H]1C [Example I-257]	0.1 to 1	0.1 to 0.5	< 0.05
COc1ccccc1OC(=O)N1C[C@H](C)N(C(C)=O)c2ccc(-c3cnn(C4CC4)c3)cc21 [Example I-258]	0.1 to 1	< 0.1	< 0.05
CC(=O)N1c2ccc(-c3cnn(C4CC4)c3)cc2N(C(=O)Oc2cccc(C(F)(F)F)c2)C[C@@H]1C [Example I-259]	1 to 10	0.1 to 0.5	< 0.05
COC(=O)c1ccc(OC(=O)N2C[C@H](C)N(C(C)=O)c3ccc(-c4cnn(C5CC5)c4)cc32)cc1 [Example I-262]	0.1 to 1	0.1 to 0.5	< 0.05
COc1ccc(OC(=O)N2C[C@H](C)N(C(C)=O)c3ccc(-c4cnn(C5CC5)c4)cc32)cc1 [Example I-263]	0.1 to 1	0.1 to 0.5	< 0.05
CC(=O)N1c2ccc(-c3cnn(C4CC4)c3)cc2N(C(=O)Oc2cccc3ccccc23)C[C@@H]1C [Example I-265]	1 to 10	> 0.5	< 0.05
CC(=O)N1c2ccc(-c3cnn(C4CC4)c3)cc2N(C(=O)Oc2ccc(F)c(C)c2)C[C@@H]1C [Example I-266]	0.1 to 1	0.1 to 0.5	< 0.05
CC(=O)N1c2ccc(-c3cnn(C4CC4)c3)cc2N(C(=O)Oc2ccc(Cl)cc2C)C[C@@H]1C [Example I-267]	0.1 to 1	0.1 to 0.5	< 0.05
CCCn1cc(-c2ccc3c(c2)N(C(=O)c2ccco2)C[C@H](C)N3C(C)=O)cn1 [Example I-269]	0.1 to 1	0.1 to 0.5	< 0.05
CC(=O)N1c2ccc(-c3ccc(S(=O)(=O)N4CCOCC4)cc3)cc2N(C(=O)c2ccco2)C[C@@H]1C [Example I-275]	1 to 10	0.1 to 0.5	0.05 to 0.5
CC(=O)N1c2ccc(-c3ccc(OCCN(C)C)cc3)cc2N(C(=O)c2ccco2)C[C@@H]1C [Example I-276]	1 to 10	< 0.1	< 0.05
